From patent publication US20220332701A1, “HETEROCYCLIC COMPOUNDS AS BCR-ABL INHIBITORS” (ASCENTAGE PHARMA (SUZHOU) CO., LTD., priority 2019, published 2022)

Tests used:
BaF3(WT) = BaF3(WT) (Homo sapiens, UniProt P00519); test: WST (CCK-8) anti-proliferation assay, BaF3 WT cells; conditions: read-out: BaF3(WT); anti-proliferative IC50, 72 h treatment, CCK-8, BaF3 WT
BaF3(T315I) = BaF3(T315I) (Homo sapiens, UniProt P00519, T315I, cells depend on it); test: WST (CCK-8) anti-proliferation assay, BaF3 T315I cells; conditions: read-out: BaF3(T315I); anti-proliferative IC50, 72 h treatment, CCK-8, BaF3 T315I

GI50 (BaF3(WT)) [nM] | GI50 (BaF3(T315I)) [nM] | Structure (SMILES)
33 | 3110 | CC1CN(C(C)C)c2c(cc(C(=O)Nc3ccc(OC(F)(F)Cl)cc3)cc2-c2ccn[nH]2)O1 (centres unmarked) [IX-4, N-(4-(chlorodifluoromethoxy)phenyl)-4-isopropyl-2-methyl-5-(1H-pyrazol-5-yl)-3,4-dihydro-2H-benzo[b][1,4]oxazine-7-carboxamide]
77 | 107 | CN1C(=O)c2cc(C(=O)Nc3ccc(OC(F)(F)Cl)cc3)cc(-c3cccnc3)c2C1(C)C [IV-9, N-(4-(chlorodifluoromethoxy)phenyl)-1,1,2-trimethyl-3-oxo-7-(pyridin-3-yl)isoindoline-5-carboxamide]
584 | 3230 | CNCC1Cc2cc(C(=O)Nc3ccc(OC(F)(F)Cl)cc3)cc(-c3ccn[nH]3)c2N1C(C)C (centres unmarked) [VII-17, N-(4-(chlorodifluoromethoxy)phenyl)-1-isopropyl-2-((methylamino)methyl)-7-(1H-pyrazol-5-yl) indoline-5-carboxamide]
124 | 484 | CC(=O)N(C)CC1Cc2cc(C(=O)Nc3ccc(OC(F)(F)Cl)cc3)cc(-c3ccn[nH]3)c2N1C(C)C (centres unmarked) [VII-18, N-(4-(chlorodifluoromethoxy)phenyl)-1-isopropyl-2-((N-methylacetamido)methyl)-7-(1H-pyrazol-5-yl)indoline-5-carboxamide]
364 | 2860 | CC1(C)C(=O)N(CCO)c2cc(C(=O)Nc3ccc(OC(F)(F)Cl)cc3)cc(-c3ccn[nH]3)c21 [V-6, N-(4-(chlorodifluoromethoxy)phenyl)-1-(2-hydroxyethyl)-3,3-dimethyl-2-oxo-4-(1H-pyrazol-5-yl)indoline-6-carboxamide]
80 | 535 | CC(C)N1CCOc2cc(C(=O)Nc3ccc(OC(F)(F)Cl)cc3)cc(-c3ccn[nH]3)c21 [IX-3, N-(4-(chlorodifluoromethoxy)phenyl)-4-isopropyl-5-(1H-pyrazol-5-yl)-3,4-dihydro-2H-benzo[b][1,4] oxazine-7-carboxamide]
399 | 3340 | Cc1ccc(-c2cc(C(=O)Nc3ccc(OC(F)(F)Cl)cc3)cc3c2C(C)(C)N(C)C3=O)o1 [IV-2, N-(4-(chlorodifluoromethoxy)phenyl)-1,1,2-trimethyl-7-(5-methylfuran-2-yl)-3-oxoisoindoline-5-carboxamide]
82 | 552 | CC(C)n1cc(CO)c2cc(C(=O)Nc3ccc(OC(F)(F)Cl)cc3)cc(-c3cncnc3)c21 [XII-7, N-(4-(chlorodifluoromethoxy)phenyl)-3-(hydroxymethyl)-1-isopropyl-7-(pyrimidin-5-yl)-1H-indole-5-carboxamide]
110 | 921 | CN1CCC2(CC1)C(=O)Nc1cc(C(=O)Nc3ccc(OC(F)(F)Cl)cc3)cc(-c3ccn[nH]3)c12 [V-10, N-(4-(chlorodifluoromethoxy)phenyl)-1′-methyl-2-oxo-4-(1H-pyrazol-5-yl)spiro[indoline-3,4′-piperidine]-6-carboxamide]
23 | 468 | O=C(Nc1ccc(OC(F)(F)Cl)cc1)c1cc2c(c(-c3ccn[nH]3)c1)N(C1CCC1)CC2 [VII-8, N-(4-(chlorodifluoromethoxy)phenyl)-1-cyclobutyl-7-(1H-pyrazol-5-yl) indoline-5-carboxamide]
128 | 726 | CC(C)n1cc(Cl)c2cc(C(=O)Nc3ccc(OC(F)(F)Cl)cc3)cc(-c3cncnc3)c21 [XII-4, 3-chloro-N-(4-(chlorodifluoromethoxy)phenyl)-1-isopropyl-7-(pyrimidin-5-yl)-1H-indole-5-carboxamide]
132 | 2380 | Cc1ccc(-c2cc(C(=O)Nc3ccc(OC(F)(F)Cl)cc3)cc3c2C(C)(C)N(C)C3=O)s1 [IV-3, N-(4-(chlorodifluoromethoxy)phenyl)-1,1,2-trimethyl-7-(5-methylthiophen-2-yl)-3-oxoisoindoline-5-carboxamide]
119 | 3250 | CC1CN(C(C)C)c2cc(C(=O)Nc3ccc(OC(F)(F)Cl)cc3)cc(-c3ccn[nH]3)c21 (centres unmarked) [III-1, N-(4-(chlorodifluoromethoxy)phenyl)-1-isopropyl-3-methyl-4-(1H-pyrazol-5-yl)indoline-6-carboxamide]
162 | 332 | CN1CCCc2cc(C(=O)Nc3ccc(OC(F)(F)Cl)cc3)cc(-c3ccn[nH]3)c21 [IX-2, N-(4-(chlorodifluoromethoxy)phenyl)-1-methyl-8-(1H-pyrazol-5-yl)-1,2,3,4-tetrahydroquinoline-6-carboxamide]
112 | 123 | O=C(Nc1ccc(OC(F)(F)Cl)cc1)c1cc2c(c(-c3ccn[nH]3)c1)N(C1CC(CO)C1)CC2 (centres unmarked) [VII-12, N-(4-(chlorodifluoromethoxy)phenyl)-1-(3-(hydroxymethyl)cyclobutyl)-7-(1H-pyrazol-3-yl)indoline-5-carboxamide]
19 | 131 | CC(C)N1c2c(cc(C(=O)Nc3ccc(OC(F)(F)Cl)cc3)cc2-c2cncnc2)CC1C(=O)N(C)C (centres unmarked) [VII-15, N5-(4-(chlorodifluoromethoxy)phenyl)-1-isopropyl-N2,N2-dimethyl-7-(pyrimidin-5-yl)indoline-2,5-dicarboxamide]
43 | 292 | O=C(Nc1ccc(OC(F)(F)Cl)cc1)c1cc2c(c(-c3ccn[nH]3)c1)C1(CC=CC1)C(=O)N2 [V-4, N-(4-(chlorodifluoromethoxy)phenyl)-2′-oxo-4′-(1H-pyrazol-5-yl)spiro[cyclopentane-1,3′-indolin]-3-ene-6′-carboxamide]
29 | 272 | O=C(Nc1ccc(OC(F)(F)Cl)cc1)c1cc2c(c(-c3ccn[nH]3)c1)N(C1CCCC1)CC2 [VII-2, N-(4-(chlorodifluoromethoxy)phenyl)-1-cyclopentyl-7-(1H-pyrazol-5-yl) indoline-5-carboxamide]
324 | 1540 | CN(C)CCN1C(=O)C(C)(C)c2c(-c3ccn[nH]3)cc(C(=O)Nc3ccc(OC(F)(F)Cl)cc3)cc21 [V-7, N-(4-(chlorodifluoromethoxy)phenyl)-1-(2-(dimethylamino)ethyl)-3,3-dimethyl-2-oxo-4-(1H-pyrazol-5-yl)indoline-6-carboxamide]
58 | 243 | CC(C)N1c2c(cc(C(=O)Nc3ccc(OC(F)(F)Cl)cc3)cc2-c2ccn[nH]2)CC1C(=O)N1CCOCC1 (centres unmarked) [VII-25, N-(4-(chlorodifluoromethoxy)phenyl)-1-isopropyl-2-(morpholine-4-carbonyl)-7-(1H-pyrazol-5-yl)indoline-5-carboxamide]
108 | 910 | O=C(Nc1ccc(OC(F)(F)Cl)cc1)c1cc2c(c(-c3ccn[nH]3)c1)C1(CC(O)C(O)C1)C(=O)N2 (centres unmarked) [V-9, N-(4-(chlorodifluoromethoxy)phenyl)-3,4-dihydroxy-2′-oxo-4′-(1H-pyrazol-5-yl)spiro[cyclopentane-1,3′-indoline]-6′-carboxamide]
308 | 2160 | CC(C)N1c2c(cc(C(=O)Nc3ccc(OC(F)(F)Cl)cc3)cc2-c2ccn[nH]2)CC1C(=O)NCCN(C)C (centres unmarked) [VII-32, N5-(4-(chlorodifluoromethoxy)phenyl)-N2-(2-(dimethylamino)ethyl)-1-isopropyl-7-(1H-pyrazol-5-yl)indoline-2,5-dicarboxamide]
